Assay results from PubChem BioAssay (NCI).
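These data come from cells grown in 96-well plates and exposed to compound for 48 hours at five concentrations. GI50 marks 50% less growth. TGI: total growth inhibition.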

Legend:
Assay in all cases: NCI tumour cell line growth inhibition, 48 h
HOP-92 NSCLC = tested on: HOP-92 NSCLC
IGROV1 ovarian = tested on: IGROV1 ovarian
MDA-MB-231 breast = tested on: MDA-MB-231 breast
NCI-H23 lung = tested on: NCI-H23 lung
NCI-H522 lung = tested on: NCI-H522 lung
OVCAR-4 ovarian = tested on: OVCAR-4 ovarian
SF-295 CNS = tested on: SF-295 CNS
SK-MEL-5 melanoma = tested on: SK-MEL-5 melanoma
SK-OV-3 ovarian = tested on: SK-OV-3 ovarian
SR leukemia = tested on: SR leukemia

Compound | GI50 (HOP-92 NSCLC) [µM] | TGI (HOP-92 NSCLC) [µM] | GI50 (IGROV1 ovarian) [µM] | TGI (IGROV1 ovarian) [µM] | GI50 (MDA-MB-231 breast) [µM] | TGI (MDA-MB-231 breast) [µM] | GI50 (NCI-H23 lung) [µM] | TGI (NCI-H23 lung) [µM] | GI50 (NCI-H522 lung) [µM] | TGI (NCI-H522 lung) [µM] | GI50 (OVCAR-4 ovarian) [µM] | TGI (OVCAR-4 ovarian) [µM] | GI50 (SF-295 CNS) [µM] | TGI (SF-295 CNS) [µM] | GI50 (SK-MEL-5 melanoma) [µM] | TGI (SK-MEL-5 melanoma) [µM] | GI50 (SK-OV-3 ovarian) [µM] | TGI (SK-OV-3 ovarian) [µM] | GI50 (SR leukemia) [µM] | TGI (SR leukemia) [µM]
COc1ccc2nc3cc(Cl)ccc3c(Nc3ccc(O)c(CN4CCCC4)c3)c2c1 | 3.92 | 16 | 2.6 | 6.67 | 1.66 | 3.84 | 2.22 | 7.08 | 1.67 | 3.79 | 2.7 | 8.24 | 1.6 | 3.53 | 1.82 | 3.24 | 6.21 | 19 | 0.534 | 3.3
COc1ccc(C2NC(=S)NC3=C2COc2ccc(F)cc23)cc1OC (stereo not given) | 41.7 | > 100 | 29.8 | > 100 | 8.37 | 53.5 | 14.1 | 34.2 | 49.2 | > 100 | 23 | > 100 | 20.1 | 70.3 | 13.5 | 30.7 | 71.2 | > 100 | 50.8 | > 100
COc1ccc(-c2nn(-c3cccc(Cl)c3)cc2-c2cc(-c3cccs3)no2)cc1 | 1.61 | 8.13 | 4 | 16.2 | 3.08 | 16.9 | 3.82 | 20.8 | 4.27 | 18.4 | 4.48 | 36.4 | 2.7 | 13.2 | 4.74 | 17.3 | 8.89 | 44.1 | 3.03 | 12.1
COc1ccc(-c2cn(-c3cc(OC)c(OC)c(OC)c3)c(=O)n2-c2ccccc2)cc1 | 11.6 | 36.9 | 27.6 | > 100 | > 100 | > 100 | > 100 | > 100 | 66.7 | > 100 | 51.7 | > 100 | > 100 | > 100 | 21.5 | > 100 | > 100 | > 100 | 50.1 | > 100
NC(=O)c1c(NC(=O)c2cccc(C(F)(F)F)c2)sc2c1CCC(=O)C2 | 0.985 | 3.47 | 0.468 | 3.47 | 0.379 | 2.73 | 0.317 | 4.29 | 0.299 | 1.62 | 0.292 | 1.25 | 1.23 | 9.07 | 1.18 | 2.95 | 2.8 | 8.39 | 0.424 | > 100
N#Cc1c(-c2ccc(Cl)cc2)csc1NC(=O)Nc1cccc(C(F)(F)F)c1 | 2.34 | 5.93 | 3.51 | 14.2 | 1.78 | 3.72 | 1.99 | 5.33 | 1.65 | 5.99 | 3.2 | 14.4 | 1.74 | 4.21 | 1.74 | 3.18 | 2.54 | 6.89 | 2.41 | 8.41
COC(=O)C1=C(C(=O)OC)C(C(=O)OC)C(C(=O)OC)C(C(=O)OC)(C(=O)OC)C(C(=O)OC)=C1C(=O)OC (stereo not given) |  | 18.4 |  | 36.8 |  | 40.1 |  | 35.8 |  | 4.07 |  | > 52 |  | 39.9 |  | 31.6 |  | 55.6 |  | 3.34
CC(=O)OC1Oc2cc(C)c(C)cc2-c2oc(=O)c(-c3ccccc3)cc21 (stereo not given) | 1.98 | 61.8 | 0.139 | 0.432 | 0.584 | 30.9 | 0.615 | > 100 | 0.177 | 4.81 | 3.92 | > 100 | 0.448 | > 34.9 | 0.231 | 4.06 | 0.407 | 37.3 | 0.215 | > 100
CCn1c(-c2nonc2N)nc2c(C#CC(C)(C)O)ncc(OC[C@@H]3CCCN3)c21 | 14.5 | > 25 | 0.676 | > 25 | 7.46 | > 25 | 8.64 | > 25 | 3.1 | 6.71 | 8.88 | > 25 | 3.07 | > 25 | 10.5 | > 25 | 0.968 | > 19 | 8.19 | > 20.2
O=C(Nc1nc2ccc(F)cc2s1)c1cccnc1Nc1ccc(Cl)cc1Cl | 1.4 | 5.15 | 3.66 | > 23.6 | 3.11 | 14.4 | 2.28 | 9.56 | 2.53 | > 25.6 | 1.57 | > 44.5 | 1.93 | 8.02 | 1.87 | 6.11 | 2.26 | 7.38 | 2.22 | 8.23
COc1cccc(C2CC(=O)Nc3cc4c(cc32)CCC4)c1OC (stereo not given) | 0.758 | 7.83 | 6.49 | 59.3 | 6.17 | 39.5 | 3.4 | 26.1 | 3.67 | 18.4 | 12.3 | 98.2 | 2.83 | 12.4 | 2.9 | 11.1 | 3.73 | 20 | 2.87 | 10.8
COc1ccc(CNC(=O)c2ccc(-c3cc(-c4nnc(C)o4)ccc3C)cc2)cc1 | 2.11 | > 25 | > 22.6 | > 25 | > 25 | > 25 | 17.4 | > 25 | > 20.2 | > 25 | 6.8 | > 25 | 7.6 | > 25 | 6.17 | > 19.9 | > 25 | > 25 | > 25 | > 25
C/C(N=NC(=S)N1CCCCCC1)=C1\C=CC=CN1O |  | 72.4 |  | > 53.8 |  | > 100 |  | > 56.2 |  | 7.1 |  | > 100 |  | > 100 |  | 35.3 |  | 98.2 |  | > 100
